#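 Cultured in 96-well plates, cells were exposed to test compound for 48 hours across five concentrations. The concentration for full growth arrest is given as TGI.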
# Assays:
# Experiment in all cases: NCI anticancer screen, dose series, 48 h
# [1] = test system: A498 renal
# [2] = test system: COLO 205 colon
# [3] = test system: HOP-62 NSCLC
# [4] = test system: M14 melanoma
# [5] = test system: MDA-MB-231 breast
# [6] = test system: MDA-N
# [7] = test system: MOLT-4 leukemia
# [8] = test system: NCI-H226 lung
# [9] = test system: OVCAR-3 ovarian
# [10] = test system: OVCAR-4 ovarian
# [11] = test system: OVCAR-5 ovarian
# [12] = test system: SF-268 CNS
# [13] = test system: SF-295 CNS
# [14] = test system: SN12C renal
# [15] = test system: SR leukemia
# [16] = test system: SW-620 colon
# [17] = test system: TK-10 renal
# [18] = test system: U251 CNS
# [19] = test system: UACC-62 melanoma
# [20] = test system: NCI-H23 lung
SMILES,TGI [1] [µM],TGI [2] [µM],TGI [3] [µM],TGI [4] [µM],TGI [5] [µM],TGI [6] [µM],TGI [7] [µM],TGI [8] [µM],TGI [9] [µM],TGI [10] [µM],TGI [11] [µM],TGI [12] [µM],TGI [13] [µM],TGI [14] [µM],TGI [15] [µM],TGI [16] [µM],TGI [17] [µM],TGI [18] [µM],TGI [19] [µM],TGI [20] [µM]
Cc1ccc(C)n1-n1c(Cc2ccccc2)n[nH]c1=O,> 100,> 100,> 100,> 100,> 100,> 100,> 100,> 100,> 100,> 100,> 100,> 100,> 100,> 100,> 100,> 100,> 100,> 100,> 100,–
Nc1nc(N)c(NC(=O)CCCO)c(=O)[nH]1,> 100,> 100,> 100,> 100,> 100,> 100,> 100,> 100,> 100,> 100,> 100,> 100,> 100,> 100,–,> 100,> 100,> 100,> 100,> 100
COC1CC(OC2C(C)OC(OC3C(C)OC(OC4C(O)CC(O[C@H]5CC[C@@]6(C)C(=CC[C@]7(O)[C@@H]6C[C@@H](OC(=O)/C=C/c6ccccc6)[C@@]6(C)[C@]7(O)CC[C@@]6(O)C(C)=O)C5)OC4C)CC3OC)CC2OC)OC(C)C1O (stereo partly drawn),–,> 6.25,> 6.25,> 6.25,> 6.25,> 6.25,> 6.25,> 6.25,> 6.25,> 6.25,> 6.25,> 6.25,> 6.25,> 6.25,> 6.25,> 6.25,> 6.25,> 6.25,> 6.25,> 6.25
CS/C1=C(\c2ccc(C)cc2)N(c2ccccc2)C(=O)C(=O)N(c2ccccc2)/C(c2ccc(C)cc2)=C(/SC)SS1,> 100,> 100,> 100,> 100,> 100,> 100,> 100,–,> 100,> 100,> 100,> 100,> 100,> 100,> 100,> 100,> 100,> 100,> 100,> 100
Cc1c(C)c2c(c(N)c1C#N)C(=O)N(Nc1ccccc1)C2=O,–,> 100,–,> 100,> 100,> 100,> 100,> 100,> 100,> 100,> 100,> 100,> 100,> 100,> 100,> 100,> 100,> 100,> 100,–
O=C(CCc1ccccc1)ON1C(=S)NC(c2ccccc2)(c2ccccc2)C1=S,> 100,> 100,> 100,> 100,> 100,> 100,75.5,93.1,> 100,> 100,> 100,> 100,> 100,> 100,–,> 100,> 100,> 100,> 100,97.6
CC(C)=NN/C(=N\S(=O)(=O)c1ccc(C)cc1)Nc1ccc(Cl)cc1,> 100,> 100,> 100,> 100,> 100,> 100,> 100,> 100,> 100,> 100,> 100,> 100,> 100,> 100,–,> 100,> 100,> 100,> 100,> 100
c1ccc2c(c1)nc1n2CCCn2ccnc2-1,> 100,> 100,> 100,> 100,> 100,> 100,> 100,> 100,> 100,> 100,> 100,> 100,> 100,> 100,> 100,> 100,–,> 100,> 100,> 100
CCOC(=O)C(/C=N\C(=S)Nc1ccc(Cl)c(Cl)c1)=C(/O)c1ccccc1,20.4,> 100,> 100,> 100,90.9,> 100,> 100,> 100,–,> 100,> 100,> 100,> 100,> 100,> 100,> 100,–,> 100,> 100,> 100
c1ccc(Cc2nc(Cc3n[nH]c(Cc4ccccc4)n3)n[nH]2)cc1,–,> 100,> 100,> 100,> 100,> 100,> 100,–,> 100,> 100,> 100,> 100,> 100,> 100,> 100,> 100,> 100,> 100,> 100,> 100
COc1c(C)c2c(c(=O)c3c(C)cccc3n2C)c2c1c(=O)c1c(C)cccc1n2C,> 10,> 10,> 10,> 10,> 10,> 10,> 10,> 10,> 10,> 10,> 10,> 10,> 10,> 10,> 10,–,> 10,> 10,> 10,> 10
NNC(=O)c1ccccc1NC(=O)/C(=C/c1ccccc1O)NC(=O)c1ccccc1,> 100,> 100,–,> 100,> 100,> 100,> 100,> 100,–,> 100,> 100,28.1,> 100,> 100,> 100,> 100,> 100,> 100,> 100,> 100
